Results as given in patent publication US8420676B2, “Oxazolidinone derivatives” (Dong-A Pharmaceuticals Co. Ltd., priority 2003, dated 2013).
≈ marks a conversion by molar mass, not a printed value.

What was measured:
[1] = tested on: methicillin resistant Staphylococcus aureus (MRSA); assay: Assay for in vitro antibacterial activity, agar dilution (MRSA); settings: read-out: Minimum Inhibitory Concentration (MIC50) MRSA
[2] = tested on: vancomycin resistant Enterococci (VRE); assay: Assay for in vitro antibacterial activity, agar dilution (VRE); settings: Enterococcus, read-out: Minimum Inhibitory Concentration (MIC50) VRE
ICR mice = assay: Test of acute toxicity by oral administration to mouse; format: in vivo; settings: 1% hydroxypropylmethylcellulose, observed 2 weeks
Protocol: To test acute toxicity of the compounds of the present invention, the following experiment was carried out.
A mixture of 1% hydroxypropylmethylcellulose and 200 mg of one selected from the group consisting of the compounds 10, 12, 16, 17, 20, 22, 24 and 27 was administrated to 5 ICR mice (5-Week old males, 20 g±2 g by weight). And then lethality for 2 weeks, weight, symptoms etc. was watched to determine Minimum Lethal Dose (MLD, mg/kg). […]

[3] = Assay for solubility in distilled water (turbidity by naked eye); format: physicochemical; settings: average of three runs; for solubility at 2 min: thermodynamic from solid
Protocol: The derivatives of the present invention were added to 200 μl of distilled water and then the solution was stirred for 2 minutes. The turbidity of the solution was watched through naked eye.
When the derivatives were not dissolved completely, 50 μl of distilled water was added to the solution and then the turbidity of the solution was assayed in the above manner to find a point of becoming transparent solution.
When 2 mg of the derivatives was first added to distilled water and completely dissolved so that the solution became transparent, 2 mg of the derivatives was added more to the solution and then state of the solution was watched. The derivatives of the present invention were added to the five times and then solubility of the solution was assayed for. The assay for solubility was carried out the three times repeatedly in the above method and the results were averaged.

| SMILES | MIC50 [1] [µg/mL] | MIC50 [2] [µg/mL] | Minimum Lethal Dose (MLD) (ICR mice) [mg/kg] | solubility at 2 min [3] [mg/mL] | Solubility [3] [mg/mL] |
| --- | --- | --- | --- | --- | --- |
| NCC(=O)OC[C@H]1CN(c2ccc(-c3ccc(-n4ccnn4)nc3)c(F)c2)C(=O)O1 [Compound 22, (R)-3-(4-(2-([1,2,3]triazol-1-yl)pyridin-5-yl)-3-fluorophenyl)-5-glycyloxymethyl oxazolidin-2-one trifluoroacetic acid] | 1 (≈ 2.42 µM) | 1 (≈ 2.42 µM) | >1000 |  |  |
| Cn1nnc(-c2ccc(-c3ccc(N4C[C@H](CO)OC4=O)cc3F)cn2)n1 [Compound 10, (R)-3-(4-(2-(2-methyltetrazol-5-yl)pyridin-5-yl)-3-fluorophenyl)-5-hydroxymethyl oxazolidin-2-one] | 0.5 (≈ 1.35 µM) | 0.25 (≈ 0.675 µM) | >1000 | 0.01 (≈ 27 µM) |  |
| Cn1nnc(-c2ccc(-c3ccc(N4C[C@H](COC(=O)CN)OC4=O)cc3F)cn2)n1 [Compound 12, (R)-3-(4-(2-(2-methyltetrazol-5-yl)pyridin-5-yl)-3-fluorophenyl)-5-glycyloxymethyl oxazolidin-2-one trifluoroacetic acid] |  |  | >1000 |  | 28 (≈ 65500 µM) |
| Cn1nnc(-c2ccc(-c3ccc(N4C[C@H](COP(=O)([O][Na+])[O][Na+])OC4=O)cc3F)cn2)n1 [Compound 59, (R)-[3-(4-(2-(2-methyltetrazol-5-yl)pyridin-5-yl)-3-fluorophenyl)-2-oxo-5-oxazolidinyl]methyl disodiumphosphate] | 0.5 | 0.25 |  | > 50 |  |
| CC(C)[C@H](N)C(=O)OC[C@H]1CN(c2ccc(-c3ccc(-c4nnn(C)n4)nc3)c(F)c2)C(=O)O1 [Compound 20, (R)-3-(4-(2-(2-methyltetrazol-5-yl)pyridin-5-yl)-3-fluorophenyl)-5-(L-valyloxy)methyl oxazolidin-2-one trifluoroacetic acid] |  |  | >1000 |  | 4.7 (≈ 10000 µM) |
| Cc1nnc(-c2ccc(-c3ccc(N4C[C@H](CO)OC4=O)cc3F)cn2)o1 [Compound 16, (R)-3-(4-(2-(2-methyl-[1,3,4]oxadiazol-5-yl)pyridin-5-yl)-3-fluorophenyl)-5-hydroxymethyl oxazolidin-2-one] | 0.5 (≈ 1.35 µM) | 1 (≈ 2.7 µM) | >1000 | 0.02 (≈ 54 µM) |  |
| Cc1nnc(-c2ccc(-c3ccc(N4C[C@H](COC(=O)CN)OC4=O)cc3F)cn2)o1.Cl [Compound 48, (R)-3-(4-(2-(2-methyl-[1,3,4]oxadiazol-5-yl)pyridin-5-yl)-3-fluorophenyl)-5-glycyloxymethyl oxazolidin-2-one hydrochloride] | 0.5 | 1 |  | > 50 |  |
| Cc1nnc(-c2ccc(-c3ccc(N4C[C@H](COC(=O)[C@H](C)N)OC4=O)cc3F)cn2)o1.Cl [Compound 52, (R)-3-(4-(2-(2-methyl-[1,3,4]oxadiazol-5-yl)pyridin-5-yl)-3-fluorophenyl)-5-(L-alanyloxy)methyl oxazolidin-2-one hydrochloride] | 0.5 | 1 |  | > 50 |  |
| Cn1nnnc1-c1ccc(-c2ccc(N3C[C@H](COP(=O)([O-])[O-])OC3=O)cc2F)cn1.[Na+].[Na+] [Compound 70, (R)-[3-(4-(2-(1-methyltetrazol-5-yl)pyridin-5-yl)-3-fluorophenyl)-2-oxo-5-oxazolidinyl]methyl disodiumphosphate] | 0.5 | 0.25 |  | > 50 |  |
| Cl.Cn1nnc(-c2ccc(-c3ccc(N4C[C@H](COC(=O)CN)OC4=O)cc3F)cn2)n1 [Compound 45, (R)-3-(4-(2-(2-methyltetrazol-5-yl)pyridin-5-yl)-3-fluorophenyl)-5-glycyloxymethyl oxazolidin-2-one hydrochloride] | 0.5 | 0.25 |  |  | 12 |
| O=C1O[C@@H](CO)CN1c1ccc(-c2ccc(-n3cncn3)nc2)c(F)c1 [Compound 17, (R)-3-(4-(2-[1,2,4]triazol-1-ylpyridin-5-yl)-3-fluorophenyl)-5-hydroxymethyl oxazolidin-2-one] | 1 (≈ 2.81 µM) | 1 (≈ 2.81 µM) | >1000 |  |  |
| Cc1nnc(-c2ccc(-c3ccc(N4C[C@H](COC(=O)CN)OC4=O)cc3F)cn2)o1 [Compound 27, (R)-3-(4-(2-(2-methyl-[1,3,4]oxadiazole-5-yl)pyridin-5-yl)-3-fluorophenyl)-5-glycyloxymethyl oxazolidin-2-one trifluoroacetic acid] |  |  | >1000 | > 50 |  |
| Cl.Cn1nnc(-c2ccc(-c3ccc(N4C[C@H](COC(=O)[C@@H]5CCCN5)OC4=O)cc3F)cn2)n1 [Compound 47, (R)-3-(4-(2-(2-methyltetrazol-5-yl)pyridin-5-yl)-3-fluorophenyl)-5-(L-prolinyloxy)methyl oxazolidin-2-one hydrochloride] | 0.5 | 0.25 |  | 2 |  |
| O=C1O[C@@H](CO)CN1c1ccc(-c2ccc(-n3ccnn3)nc2)c(F)c1 [Compound 24, (R)-3-(4-(2-([1,2,3]triazol-1-yl)pyridin-5-yl)-3-fluorophenyl)-5-hydroxymethyl oxazolidin-2-one] | 0.5 (≈ 1.41 µM) | 0.5 (≈ 1.41 µM) | >1000 |  |  |
| Cc1nnc(-c2ccc(-c3ccc(N4C[C@H](COC(=O)[C@@H]5CCCN5)OC4=O)cc3F)cn2)o1.Cl [Compound 56, (R)-3-(4-(2-(2-methyl-[1,3,4]oxadiazol-5-yl)pyridin-5-yl)-3-fluorophenyl)-5-(L-prolinyloxy)methyl oxazolidin-2-one hydrochloride] | 0.5 | 1 |  | > 50 |  |
